The record followed here is ChEMBL document CHEMBL3638875, “Pyrazol-4-yl-heterocyclyl-carboxamide compounds and methods of use” (2014).

Structures are written as SMILES.

In assay [1] the target is Serine/threonine-protein kinase pim-2 (Homo sapiens, UniProt Q9P1W9). Description: (§1) A fluorescent-labeled Pim-specific peptide substrate, was custom synthesized by American Peptide Company (Sunnyvale, Calif.). Reaction Buffer contained 10 mM HEPES, pH 7.2, 10 mM MgCl2, 0.01% Tween 20, 2 mM DTT. Termination Buffer contained 190 mM HEPES, pH 7.2, 0.015% Brij-35, 0.2% Coating Reagent 3 (Caliper Life Sciences, Hopkinton, Mass.), 20 mM EDTA. Separation Buffer contained 100 mM HEPES, pH 7.2, 0.015% Brij-35, 0.1% Coating Reagent 3, 1:200 Coating Reagent 8 (Caliper Life Sciences, Hopkinton, Mass.), 10 mM EDTA and 5% DMSO.
Serine/threonine-protein kinase pim-2, sequence (Q9P1W9 whole entry): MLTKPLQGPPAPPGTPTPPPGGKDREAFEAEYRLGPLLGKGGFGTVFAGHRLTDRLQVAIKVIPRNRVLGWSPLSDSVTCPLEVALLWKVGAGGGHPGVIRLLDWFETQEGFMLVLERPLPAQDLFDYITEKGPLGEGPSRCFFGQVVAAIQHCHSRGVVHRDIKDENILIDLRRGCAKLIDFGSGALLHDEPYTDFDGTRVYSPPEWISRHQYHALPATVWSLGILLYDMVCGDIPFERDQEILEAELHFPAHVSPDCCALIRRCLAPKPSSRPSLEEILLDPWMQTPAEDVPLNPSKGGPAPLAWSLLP

For assay [2], the target named is Serine/threonine-protein kinase pim-3 (Homo sapiens, UniProt Q86V86). Described as §1, with “Binding Assay: PIM-1, -2, and -3 enzymes were generated as fusion proteins expressed in bacteria and purified by IMAC column chromatography (Sun, X., Chiu, J. F., and He, Q. Y. (2005) Expert Rev. Proteomics, 2:649-657). A fluorescent-labeled” for “A fluorescent-labeled”.

For the compound `Cn1ncc(NC(=O)c2nc(Br)cnc2N)c1N1CCC[C@H](N)C1`, the results for the inhibition constant (Ki) in assay [1] and in assay [2] were 154 nM and 68.1 nM, respectively.
